# What was measured:
# [1] = molecular target: T1, Human recombinant OX2 receptors (Homo sapiens, UniProt O43614); test: Human Orexin GPCR Binding (Agonist Radioligand) Assay, [125I] Orexin A competition; conditions: radioligand competition binding assay; read-out: IC50 (nM) OXR2
# T1 sequence (O43614 1-444): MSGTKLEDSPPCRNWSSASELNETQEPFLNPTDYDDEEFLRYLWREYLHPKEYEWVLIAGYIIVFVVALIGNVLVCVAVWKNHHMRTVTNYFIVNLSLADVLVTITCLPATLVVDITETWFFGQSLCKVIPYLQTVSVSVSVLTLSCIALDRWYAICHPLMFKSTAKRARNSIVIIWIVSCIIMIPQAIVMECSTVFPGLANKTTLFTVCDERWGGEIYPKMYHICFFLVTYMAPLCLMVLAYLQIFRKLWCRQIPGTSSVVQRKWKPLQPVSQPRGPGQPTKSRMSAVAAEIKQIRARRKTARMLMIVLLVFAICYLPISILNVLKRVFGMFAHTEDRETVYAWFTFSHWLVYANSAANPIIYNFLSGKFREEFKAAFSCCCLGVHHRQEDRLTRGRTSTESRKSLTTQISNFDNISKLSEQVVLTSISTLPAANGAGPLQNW
# Protocol: (§1) Radioligand competition binding assays were performed by Panlabs, Eurofins Pharma Discovery Services. Briefly, human recombinant orexin OX1 receptors expressed in CHO-S cells were used in modified HEPES buffer pH 7.4. […] Orexin A for 60 minutes at 25 °C. […] Orexin A specifically binding. Human recombinant OX2 receptors were used in modified HEPES buffer pH 7.4. […] Orexin A for 180 minutes at 25 °C. […] Orexin A specifically bound.
# [2] = molecular target: T2, human recombinant orexin OX1 receptors (Homo sapiens, UniProt O43613); test: as above; conditions: radioligand competition binding assay; read-out: IC50 (nM) OXR1
# T2 construct: host or cells: CHO-S cells
# T2 sequence (O43613 1-425): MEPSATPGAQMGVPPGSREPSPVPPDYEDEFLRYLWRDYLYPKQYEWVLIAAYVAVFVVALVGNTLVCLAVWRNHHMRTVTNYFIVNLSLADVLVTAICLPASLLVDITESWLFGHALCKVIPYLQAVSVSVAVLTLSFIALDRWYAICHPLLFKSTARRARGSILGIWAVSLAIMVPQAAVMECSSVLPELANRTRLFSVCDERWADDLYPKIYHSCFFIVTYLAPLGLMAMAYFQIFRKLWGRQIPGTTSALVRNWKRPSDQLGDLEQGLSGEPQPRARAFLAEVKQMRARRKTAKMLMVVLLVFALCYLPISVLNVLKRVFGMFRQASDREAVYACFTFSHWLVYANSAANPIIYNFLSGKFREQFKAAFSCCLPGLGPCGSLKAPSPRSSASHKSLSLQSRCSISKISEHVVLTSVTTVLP
# Protocol: as §1
# OXRs = test: Mouse PET-CT blocking study of [^11C]CW24 uptake; type: in vivo, mice
# Protocol: (§2) Animals were anesthetized with 1–1.5% isoflurane and maintained with isoflurane during the imaging scan. In a single imaging session, mice were arranged in a Triumph PET/CT scanner (Gamma Medica, Northridge, CA). […] Animals underwent a 60 min dynamic PET scan followed by computed tomography (CT).
# (§3) PET data were reconstructed using a 3D-MLEM method resulting in a full width at half-maximum resolution of 1 mm. PET and CT images in DICOM format were imported to PMOD (PMOD Technologies, Ltd. Zürich, Switzerland) and co-registered to the brain atlas. Volumes of interest (VOIs) were drawn as spheres in brain regions guided by CT structural images and summed PET data. Time-activity curves (TACs) were exported as activity per unit volume (%ID/cc) for analysis.
# [3] = Plasma and metabolite analysis; type: in vivo, rhesus macaque; conditions: macaque arterial plasma, at 30 min
# Protocol: Briefly, arterial blood samples collected (every 10 s at first 3 min post-administration of [^11C]CW24, then 5 min, 10 min, 20 min, 30 min, 45 min, 60 min, and 90 min) during macaque imaging were centrifuged to separate plasma, which was then removed and placed in an automated gamma counter. Metabolite analysis of blood samples collected from 5 to 90 min was conducted on a custom automated robot fitted with Phenomenex SPE Strata-X 500 mg solid phase extraction cartridges that were primed with ethanol (2 mL) and deionized water (20 mL). Protein precipitation was achieved by the addition of plasma (300 μL) to acetonitrile (300 μL), which was centrifuged for 1 min to obtain protein-free plasma (PFP). Three hundred microliters of PFP/acetonitrile solution was diluted into deionized water (3 mL), loaded onto the C18 cartridge, and removed of polar metabolites with 100% water. Next, a series of extractions was performed using water and acetonitrile. Each sample was counted in a WIZARD2 Automatic Gamma Counter to determine the presence of radiolabeled metabolites.
# [4] = Macaque PET-MR imaging and Logan plot kinetic modeling; type: in vivo, rhesus macaque; conditions: all brain regions examined
# Protocol: A male rhesus macaque (14.4 kg) was included in this study. After endotracheal intubation, the macaque was catheterized antecubitally for radiotracer injection and a radial arterial line was placed for arterial blood sampling and radiometabolite analysis. The animal was anesthetized with 1.2–1.3% Isoflurane in medical oxygen throughout the imaging session. PET-MR data was acquired on a 3T Siemens MRI scanner (Munich, Germany) with a BrainPET insert. A baseline and a blocking scan were performed on the same animal. Dynamic PET image acquisition was initiated followed by a bolus administration of [^11C]CW24 (179 MBq for the baseline scan and 192 MBq for the blocking scan). To characterize the specific binding of [^11C]CW24, a blocking study was carried out in which 2.0 mg/kg IPSU (1.0 % DMSO + 1.0 % Tween 80 + 98.0 % saline to make a solution of 1.0 mg/mL) was administered 5 min prior the acquisition. A T1-weighting multi-echo magnetization-prepared rapid gradient-echo ([…]) sequence began as the PET scan for anatomic co-registration. […]
# Motion-corrected PET data were registered to the INIA19 macaque MRI Template. […] With the availability of a metabolite-corrected arterial plasma data, the regional volume of distribution (VT) was calculated using Logan Plot analysis (with a fixed t* of 40 min).
# [5] = Mouse PET-CT imaging, brain uptake; type: in vivo; conditions: mice, i.v., baseline
# Protocol: as §2, §3
# OX2R = OX2R vs OX1R; cited from earlier work
molecule,measurement,setting,value
"COc1ccnc(N2CCC3(CCCN(Cc4c[nH]c5ccccc45)C3=O)CC2)n1 [IPSU, reference compound]",IC50,[1],3130 nM
same,IC50,[2],1090 nM
same,reduction in [^11C]CW24 uptake,"OXRs; mice brain, 0.5 mg/kg IPSU i.v. 5 min pretreatment, 30–60 mins post-injection",Approximately 10%
same,reduction in [^11C]CW24 uptake,"OXRs; mice brain, 2.0 mg/kg IPSU i.v. 5 min pretreatment",approximately 50%
Cc1ccc(-n2nccn2)c(C(=O)N2CCN(c3nc4cc(Cl)ccc4o3)CC[C@H]2C)c1 [Suvorexant],reduction in [^11C]CW24 uptake,"OXRs; mouse brain, Suvorexant 5.0 mg/kg i.v., 30–60 mins post-injection",approximately 50%
COc1ccnc(N2CCC3(CCCN(Cc4cn([11CH3])c5ccccc45)C3=O)CC2)n1 [[^11C]CW24],parent compound in plasma,[3],~ 47%
same,peak standard uptake value (SUV),[4],1.5–3.0
same,brain uptake %ID/cc at Cmax,[5],3.5 %ID/cc
orexin-B: orexin peptide with 28 amino acids,higher affinity for OX2R compared with OX1R,OX2R,10 fold

# — PMC7179119, “A New Positron Emission Tomography Probe for Orexin Receptors Neuroimaging” (Molecules, 2020)
